Measured values taken from patent US20260200897A1, “4-((5-(3-(4-(PYRIDIN-2-YL)CYCLOPENTYL)-1H-PYRAZOL-3-YL)AMINO)-BENZENESULFONAMIDE DERIVATIVES AND SIMILAR COMPOUNDS AS CDK INHIBITORS FOR THE TREATMENT OF CANCER” (BeOne Medicines I GmbH, priority 2023, published 2026).

Legend:
[1] = molecular target: CDK2/Cyclin E1 (Homo sapiens, UniProt P24941); experiment: CDK2/Cyclin E1 TR-FRET biochemical assay, 0.060 mM ATP; details: 0.15 μM Rb (Ser780)-biotin substrate, 120 min reaction, Table 1
Experimental: (§1) Compounds disclosed herein were tested for inhibition of CDK2/Cyclin E1 or CDK1/Cyclin B1 kinase in an assay based on the time-resolved fluorescence-resonance energy transfer (TR-FRET) methodology. The assay was carried out in 384-well low volume black plates in a reaction mixture containing CDK2/Cyclin E1 or CDK1/Cyclin B1, 0.060 mM ATP for CDK2/Cyclin E1 or 0.015 mM ATP for CDK1/Cyclin B1, 0.15 μM Rb (Ser780)-biotin substrate and 0-10 μM compound in buffer containing 50 mM HEPES pH7.0, 0.02% NaN3, 0.01% BSA, 0.1 mM Orthovanadate, 50 mM MgCl2, 1 mM DTT and 0.005% Tween-20. The kinase was incubated with compound for 60 minutes at room temperature and the reaction was initiated by the addition of ATP and Rb (Ser780)-biotin substrate. After reaction at room temperature for 120 minutes, an equal volume of stop/detection solution was added according to the manufacture's instruction (Cisbio Bioassays). The stop/detection solution contained Streptavidin-XL665 and Anti-pRb (Ser780) mAb-Eu Cryptate in Detection buffer (Cisbio Bioassays). Plates were incubated at room temperature for 60 minutes, and the TR-FRET signals (ex337 nm, em665 nm/620 nm) were recorded on a PHERAstar FSX plate reader (BMG Labtech). The inhibition percentage of CDK2/Cyclin E1 or CDK1/Cyclin B1 kinase activity in presence of increasing concentrations of compounds was calculated based on the ratio of fluorescence at 665 nm to that at 620 nm. The IC50 for each compound was derived from fitting the data to the four-parameter logistic equation by Dotmatics.

[2] = molecular target: CDK1/Cyclin B1 (Homo sapiens, UniProt P06493); experiment: CDK1/Cyclin B1 TR-FRET biochemical assay, 0.015 mM ATP; details: 0.15 μM Rb (Ser780)-biotin substrate, 120 min reaction, Table 1
Experimental: as §1

Chain of CDK1/Cyclin B1 (P06493 whole entry): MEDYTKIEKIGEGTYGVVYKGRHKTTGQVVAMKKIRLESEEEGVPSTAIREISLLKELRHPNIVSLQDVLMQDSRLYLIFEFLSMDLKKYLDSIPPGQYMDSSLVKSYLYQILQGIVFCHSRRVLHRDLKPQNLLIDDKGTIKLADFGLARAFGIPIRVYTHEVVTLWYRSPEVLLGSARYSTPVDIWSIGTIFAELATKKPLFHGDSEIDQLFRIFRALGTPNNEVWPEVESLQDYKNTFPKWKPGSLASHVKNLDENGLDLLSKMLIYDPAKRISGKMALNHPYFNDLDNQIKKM
Chain of CDK1/Cyclin B1 (P14635 whole entry partner): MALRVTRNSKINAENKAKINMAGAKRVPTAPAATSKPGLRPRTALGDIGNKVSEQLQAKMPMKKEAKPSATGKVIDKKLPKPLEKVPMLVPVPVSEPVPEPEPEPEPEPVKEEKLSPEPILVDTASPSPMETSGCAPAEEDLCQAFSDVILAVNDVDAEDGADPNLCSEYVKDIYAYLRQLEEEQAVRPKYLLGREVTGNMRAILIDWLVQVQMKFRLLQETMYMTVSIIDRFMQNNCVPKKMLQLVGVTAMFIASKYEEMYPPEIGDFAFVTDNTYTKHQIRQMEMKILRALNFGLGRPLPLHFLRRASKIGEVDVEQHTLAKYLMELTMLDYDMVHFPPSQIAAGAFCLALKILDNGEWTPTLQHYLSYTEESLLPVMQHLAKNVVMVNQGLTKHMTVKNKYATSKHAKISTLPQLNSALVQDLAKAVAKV

Row | Structure (SMILES) | IC50 [1] | IC50 [2]
1 | O=S1(=O)NCc2c1ccc(Nc1cc([C@H]3CC[C@@H](Oc4cccnc4)C3)[nH]n1)c2F (relative stereo) [Example 39, cis-4-fluoro-5-((5-(3-(pyridin-3-yloxy)cyclopentyl)-1H-pyrazol-3-yl)amino)-2,3-dihydrobenzo[d]isothiazole 1,1-dioxide] | 55 nM | 2330 nM
2 | O=S1(=O)NCc2c1ccc(Nc1cc([C@H]3CC[C@@H](Oc4cnccc4C4CC4)C3)[nH]n1)c2F (relative stereo) [Example 41, cis-5-((5-(3-((4-cyclopropylpyridin-3-yl)oxy)cyclopentyl)-1H-pyrazol-3-yl)amino)-4-fluoro-2,3-dihydrobenzo[d]isothiazole 1,1-dioxide] | 33 nM | 474 nM
3 | O=S1(=O)NCc2c1ccc(Nc1cc([C@H]3CC[C@@H](Oc4ccon4)C3)[nH]n1)c2F (relative stereo) [Example 48, cis-4-fluoro-5-((5-(3-(isoxazol-3-yloxy)cyclopentyl)-1H-pyrazol-3-yl)amino)-2,3-dihydrobenzo[d]isothiazole 1,1-dioxide] | 38 nM | 425 nM
4 | CC(C)(C)c1cnc([C@@H]2CC[C@H](c3cc(Nc4ccc5c(c4)CS(=O)(=O)N5)n[nH]3)C2)o1 (relative stereo) [Example 135, cis-5-((5-(3-(5-(tert-butyl)oxazol-2-yl)cyclopentyl)-1H-pyrazol-3-yl)amino)-1,3-dihydrobenzo[c]isothiazole 2,2-dioxide] | 4.6 nM | 11 nM
5 | Cc1ccncc1O[C@@H]1CC[C@H](c2cc(Nc3ccc4c(c3F)CNS4(=O)=O)n[nH]2)C1 (relative stereo) [Example 42, cis-4-fluoro-5-((5-(3-((4-methylpyridin-3-yl)oxy)cyclopentyl)-1H-pyrazol-3-yl)amino)-2,3-dihydrobenzo[d]isothiazole 1,1-dioxide] | 171 nM | 531 nM
6 | CC(C)c1cncc(O[C@@H]2CC[C@H](c3cc(Nc4ccc5c(c4F)CNS5(=O)=O)n[nH]3)C2)c1 (relative stereo) [Example 44, cis-4-fluoro-5-((5-(3-((5-isopropylpyridin-3-yl)oxy)cyclopentyl)-1H-pyrazol-3-yl)amino)-2,3-dihydrobenzo[d]isothiazole 1,1-dioxide] | 1400 nM | 8340 nM
7 | O=S1(=O)NCc2c1ccc(Nc1cc([C@H]3CC[C@@H](Oc4ccnn4-c4ccccc4)C3)[nH]n1)c2F (relative stereo) [Example 70, (cis)-4-fluoro-5-((5-(3-((1-phenyl-1H-pyrazol-5-yl)oxy)cyclopentyl)-1H-pyrazol-3-yl)amino)-2,3-dihydrobenzo[d]isothiazole 1,1-dioxide] | > 10000 nM | > 10000 nM
8 | O=S1(=O)NCc2c1ccc(Nc1cc([C@H]3CC[C@@H](Oc4cn[nH]c4)C3)[nH]n1)c2F (relative stereo) [Example 76, cis-5-((5-(3-((1H-pyrazol-4-yl)oxy)cyclopentyl)-1H-pyrazol-3-yl)amino)-4-fluoro-2,3-dihydrobenzo[d]isothiazole 1,1-dioxide] | 53 nM | 1610 nM
9 | CC(C)(C)c1cnc([C@@H]2CC[C@H](c3cc(Nc4ccc5c(c4F)CS(=O)(=O)N5)n[nH]3)C2)o1 (relative stereo) [Example 145, cis-5-((5-(3-(5-(tert-butyl)oxazol-2-yl)cyclopentyl)-1H-pyrazol-3-yl)amino)-4-fluoro-1,3-dihydrobenzo[c]isothiazole 2,2-dioxide] | 3.3 nM | 11 nM
10 | O=S1(=O)NCc2c1ccc(Nc1cc([C@H]3CC[C@@H](Oc4cc(C(F)(F)F)n[nH]4)C3)[nH]n1)c2F (relative stereo) [Example 69, cis-4-fluoro-5-((5-(3-((3-(trifluoromethyl)-1H-pyrazol-5-yl)oxy)cyclopentyl)-1H-pyrazol-3-yl)amino)-2,3-dihydrobenzo[d]isothiazole 1,1-dioxide] | 829 nM | > 10000 nM

Second part, the compound after the results:

Row | IC50 [1] | IC50 [2] | Structure (SMILES)
11 | 391 nM | 7810 nM | CC(C)(C)c1cc(O[C@@H]2CC[C@H](c3cc(Nc4ccc5c(c4F)CNS5(=O)=O)n[nH]3)C2)[nH]n1 (relative stereo) [Example 71, cis-5-((5-(3-((3-(tert-butyl)-1H-pyrazol-5-yl)oxy)cyclopentyl)-1H-pyrazol-3-yl)amino)-4-fluoro-2,3-dihydrobenzo[d]isothiazole 1,1-dioxide]
12 | 73 nM | 1340 nM | CN1C(=O)N([C@H]2CC[C@@H](c3cc(Nc4ccc5c(c4F)CNS5(=O)=O)n[nH]3)C2)C(=O)C1(C)C (relative stereo) [Example 86, cis-3-(3-(3-((4-fluoro-1,1-dioxido-2,3-dihydrobenzo[d]isothiazol-5-yl)amino)-1H-pyrazol-5-yl)cyclopentyl)-1,5,5-trimethylimidazolidine-2,4-dione]
13 | 296 nM | 1900 nM | Cn1ccc(O[C@@H]2CC[C@H](c3cc(Nc4ccc5c(c4F)CNS5(=O)=O)n[nH]3)C2)n1 (relative stereo) [Example 64, cis-4-fluoro-5-((5-(3-((1-methyl-1H-pyrazol-3-yl)oxy)cyclopentyl)-1H-pyrazol-3-yl)amino)-2,3-dihydrobenzo[d]isothiazole 1,1-dioxide]
14 | 1.3 nM | 53 nM | CC(C)(C)c1cnc(C2CCC(c3cc(Nc4ccc5c(c4F)CNS5(=O)=O)n[nH]3)C2)o1 (single isomer, unassigned) [Example 91a, cis-5-((5-(3-(5-(tert-butyl)oxazol-2-yl)cyclopentyl)-1H-pyrazol-3-yl)amino)-4-fluoro-2,3-dihydrobenzo[d]isothiazole 1,1-dioxide]
15 | 7.6 nM | 237 nM | CC1(C)NC(=O)N(C2CCC(c3cc(Nc4ccc5c(c4F)CNS5(=O)=O)n[nH]3)C2)C1=O (single isomer, unassigned) [Example 84a, cis-3-(3-(3-((4-fluoro-1,1-dioxido-2,3-dihydrobenzo[d]isothiazol-5-yl)amino)-1H-pyrazol-5-yl)cyclopentyl)-5,5-dimethylimidazolidine-2,4-dione]
16 | 478 nM | 2560 nM | O=c1ccon1[C@H]1CC[C@@H](c2cc(Nc3ccc4c(c3F)CNS4(=O)=O)n[nH]2)C1 (relative stereo) [Example 49, cis-2-(3-(3-((4-fluoro-1,1-dioxido-2,3-dihydrobenzo[d]isothiazol-5-yl)amino)-1H-pyrazol-5-yl)cyclopentyl)isoxazol-3 (2H)-one]
17 | 10 nM | 486 nM | Cc1n[nH]cc1O[C@@H]1CC[C@H](c2cc(Nc3ccc4c(c3F)CNS4(=O)=O)n[nH]2)C1 (relative stereo) [Example 79, cis-4-fluoro-5-((5-(3-((3-methyl-1H-pyrazol-4-yl)oxy)cyclopentyl)-1H-pyrazol-3-yl)amino)-2,3-dihydrobenzo[d]isothiazole 1,1-dioxide]
18 | 12 nM | 445 nM | CC(C)c1n[nH]cc1O[C@@H]1CC[C@H](c2cc(Nc3ccc4c(c3F)CNS4(=O)=O)n[nH]2)C1 (relative stereo) [Example 73, cis-4-fluoro-5-((5-(3-((3-isopropyl-1H-pyrazol-4-yl)oxy)cyclopentyl)-1H-pyrazol-3-yl)amino)-2,3-dihydrobenzo[d]isothiazole 1,1-dioxide]
19 | 70 nM | 1360 nM | Cc1cc(O[C@@H]2CC[C@H](c3cc(Nc4ccc5c(c4F)CNS5(=O)=O)n[nH]3)C2)[nH]n1 (relative stereo) [Example 65, cis-4-fluoro-5-((5-(3-((3-methyl-1H-pyrazol-5-yl)oxy)cyclopentyl)-1H-pyrazol-3-yl)amino)-2,3-dihydrobenzo[d]isothiazole 1,1-dioxide]
20 | 5.7 nM | 49 nM | Cc1ccnnc1O[C@@H]1CC[C@H](c2cc(Nc3ccc4c(c3F)CNS4(=O)=O)n[nH]2)C1 (relative stereo) [Example 24, cis-4-fluoro-5-((5-(3-((4-methylpyridazin-3-yl)oxy)cyclopentyl)-1H-pyrazol-3-yl)amino)-2,3-dihydrobenzo[d]isothiazole 1,1-dioxide]
21 | 7.5 nM | 703 nM | CC(C)c1cnn([C@H]2CC[C@@H](c3cc(Nc4ccc5c(c4F)CNS5(=O)=O)n[nH]3)C2)c(=O)c1 (relative stereo) [Example 33, cis-2-(3-(3-((4-fluoro-1,1-dioxido-2,3-dihydrobenzo[d]isothiazol-5-yl)amino)-1H-pyrazol-5-yl)cyclopentyl)-5-isopropylpyridazin-3 (2H)-one]
22 | 33 nM | 1320 nM | O=S1(=O)NCc2c1ccc(Nc1cc([C@H]3CC[C@@H](Oc4ccsn4)C3)[nH]n1)c2F (relative stereo) [Example 50, cis-4-fluoro-5-((5-(3-(isothiazol-3-yloxy)cyclopentyl)-1H-pyrazol-3-yl)amino)-2,3-dihydrobenzo[d]isothiazole 1,1-dioxide]
